According to ChEMBL document CHEMBL1146013, “Amino substituted analogs of 1-phenyl-3-phenylimino-2-indolones with potent galanin Gal3 receptor binding affinity and improved solubility” (Bioorg Med Chem Lett, 2006):
Converted amounts (≈) assume the structure as drawn.

How the values were obtained:
Galanin receptor type 3 = target: T1, Galanin receptor type 3 (Homo sapiens, UniProt O60755); assay: Displacement of [125I]galanin from human galanin Gal3 receptor
T1 sequence (O60755 whole entry): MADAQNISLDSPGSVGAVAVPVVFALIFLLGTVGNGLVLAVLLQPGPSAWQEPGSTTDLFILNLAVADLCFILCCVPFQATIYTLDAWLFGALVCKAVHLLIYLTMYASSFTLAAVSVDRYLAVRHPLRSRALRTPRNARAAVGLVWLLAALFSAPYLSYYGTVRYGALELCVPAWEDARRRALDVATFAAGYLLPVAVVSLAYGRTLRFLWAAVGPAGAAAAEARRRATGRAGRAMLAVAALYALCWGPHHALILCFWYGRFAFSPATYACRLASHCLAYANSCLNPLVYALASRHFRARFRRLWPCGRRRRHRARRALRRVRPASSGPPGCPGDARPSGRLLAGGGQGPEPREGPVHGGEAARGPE

[1] = Aqueous solubility at pH 7.4; assay type: physicochemical
D(1B) dopamine receptor = D(1B) dopamine receptor (Homo sapiens, UniProt P21918); assay: Binding affinity to human dopamine D5 receptor
Sequence of D(1B) dopamine receptor (P21918 whole entry): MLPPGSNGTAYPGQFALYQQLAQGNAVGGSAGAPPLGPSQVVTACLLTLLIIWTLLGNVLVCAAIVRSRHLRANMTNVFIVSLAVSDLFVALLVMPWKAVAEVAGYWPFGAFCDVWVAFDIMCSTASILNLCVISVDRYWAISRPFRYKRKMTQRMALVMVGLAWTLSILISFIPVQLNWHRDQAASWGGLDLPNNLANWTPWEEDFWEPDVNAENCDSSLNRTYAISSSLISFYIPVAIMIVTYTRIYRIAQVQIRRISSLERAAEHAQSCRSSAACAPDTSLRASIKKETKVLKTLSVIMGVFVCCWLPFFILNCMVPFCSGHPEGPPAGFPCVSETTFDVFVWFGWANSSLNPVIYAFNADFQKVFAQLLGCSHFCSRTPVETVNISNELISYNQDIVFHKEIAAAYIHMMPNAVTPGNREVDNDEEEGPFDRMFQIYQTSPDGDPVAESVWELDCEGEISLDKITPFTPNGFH

[2] = target: T2, Alpha-1A adrenergic receptor (Homo sapiens, UniProt P35348); assay: Binding affinity to human adrenergic alpha-1A receptor
T2 sequence (P35348 whole entry): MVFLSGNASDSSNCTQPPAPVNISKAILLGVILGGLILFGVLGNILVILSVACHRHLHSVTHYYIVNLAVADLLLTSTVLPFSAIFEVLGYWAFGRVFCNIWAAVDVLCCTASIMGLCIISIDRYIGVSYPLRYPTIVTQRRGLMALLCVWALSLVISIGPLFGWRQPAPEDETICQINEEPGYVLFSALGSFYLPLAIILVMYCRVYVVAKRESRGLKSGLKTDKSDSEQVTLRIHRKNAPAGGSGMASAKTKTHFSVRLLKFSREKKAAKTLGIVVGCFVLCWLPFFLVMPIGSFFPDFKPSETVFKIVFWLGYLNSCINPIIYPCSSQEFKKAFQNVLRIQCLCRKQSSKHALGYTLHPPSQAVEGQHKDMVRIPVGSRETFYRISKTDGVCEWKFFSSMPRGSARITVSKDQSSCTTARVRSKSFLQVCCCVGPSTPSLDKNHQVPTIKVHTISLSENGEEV

Row | Compound | Ki (Galanin receptor type 3) | solubility [1] | Ki (D(1B) dopamine receptor) | Ki [2]
1 | CCN(CC)CCCCOc1ccc(N2C(=O)/C(=N/c3cccc(C(F)(F)F)c3)c3ccccc32)cc1 | 70 nM | – | – | –
2 | CCN(CC)C[C@@H](O)COc1cccc(N2C(=O)/C(=N/c3cccc(C(F)(F)F)c3)c3ccccc32)c1 | 290 nM | – | – | –
3 | O=C1/C(=N/c2cccc(C(F)(F)F)c2)c2ccccc2N1c1cccc(OCCCN2CCCC2)c1 | 49 nM | – | – | –
4 | CCN(CC)CCOc1ccccc1N1C(=O)/C(=N/c2cccc(C(F)(F)F)c2)c2ccccc21 | 1000 nM | – | – | –
5 | CCN(CC)CCOc1cccc(N2C(=O)/C(=N/c3cccc(C(F)(F)F)c3)c3ccccc32)c1 | 87 nM | – | – | –
6 | CN(C)CCOc1ccc(N2C(=O)/C(=N/c3cccc(C(F)(F)F)c3)c3ccccc32)cc1 | 89 nM | – | – | –
7 | CCN(CC)COc1cccc(N2C(=O)/C(=N/c3cccc(C(F)(F)F)c3)c3ccccc32)c1 | 38 nM | 48 µg/mL (≈ 103 µM) | – | –
8 | O=C1/C(=N/c2cccc(C(F)(F)F)c2)c2ccccc2N1c1ccccc1OCCN1CCCC1 | 790 nM | – | – | –
9 | CCN(CC)CCCCOc1cccc(N2C(=O)/C(=N/c3cccc(C(F)(F)F)c3)c3ccccc32)c1 | 45 nM | 5 µg/mL (≈ 9.81 µM) | – | –
10 | CCN(CC)CCOc1ccc(N2C(=O)/C(=N/c3cccc(C(F)(F)F)c3)c3ccccc32)cc1 | 78 nM | – | – | –

The next compounds have a lower Ki (Galanin receptor type 3) than those just listed; values first:

Row | Ki (Galanin receptor type 3) | solubility [1] | Ki (D(1B) dopamine receptor) | Ki [2] | Compound
11 | 34 nM | 35 µg/mL (≈ 70.6 µM) | – | – | CCN(CC)CCCOc1ccc(N2C(=O)/C(=N/c3cccc(C(F)(F)F)c3)c3ccccc32)cc1
12 | 29 nM | – | – | – | CN(C)CCCOc1cccc(N2C(=O)/C(=N/c3cccc(C(F)(F)F)c3)c3ccccc32)c1
13 | 27 nM | 606 µg/mL (≈ 1180 µM) | – | – | CCN(CC)C[C@H](O)COc1cccc(N2C(=O)/C(=N/c3cccc(C(F)(F)F)c3)c3ccccc32)c1
14 | 26 nM | – | – | – | CN(C)CCOc1cccc(N2C(=O)/C(=N/c3cccc(C(F)(F)F)c3)c3ccccc32)c1
15 | 21 nM | 44 µg/mL (≈ 88.8 µM) | 411 nM | – | CCN(CC)CCCOc1cccc(N2C(=O)/C(=N/c3cccc(C(F)(F)F)c3)c3ccccc32)c1
16 | 17 nM | < 1 µg/mL | – | – | O=C1/C(=N/c2cccc(C(F)(F)F)c2)c2ccccc2N1c1ccccc1
17 | 15 nM | – | – | – | CCN(CC)CC(O)COc1cccc(N2C(=O)/C(=N/c3cccc(C(F)(F)F)c3)c3ccccc32)c1 (racemic)
18 | 8 nM | 7 µg/mL (≈ 14.2 µM) | – | – | O=C1/C(=N/c2cccc(C(F)(F)F)c2)c2ccccc2N1c1cccc(OCCN2CCCCC2)c1
19 | 5 nM | 48 µg/mL (≈ 100 µM) | 939 nM | 78 nM | O=C1/C(=N/c2cccc(C(F)(F)F)c2)c2ccccc2N1c1cccc(OCCN2CCCC2)c1
